Blank lines part the entries; values can stand above or below the molecule they belong to.
Assays:
[1] = target: T1, human recombinant G9a (Homo sapiens, UniProt Q96KQ7); assay: G9a inhibition, peptide-based AlphaLISA assay; type: biochemical; settings: for fold reduction of G9a inhibitory activity compared to 12a: relative to 12a, from Table 1 IC50; for Hill slope of the concentration–response inhibition curve of G9a: AlphaLISA, four-parameter fit
T1 sequence (Q96KQ7 1-1210): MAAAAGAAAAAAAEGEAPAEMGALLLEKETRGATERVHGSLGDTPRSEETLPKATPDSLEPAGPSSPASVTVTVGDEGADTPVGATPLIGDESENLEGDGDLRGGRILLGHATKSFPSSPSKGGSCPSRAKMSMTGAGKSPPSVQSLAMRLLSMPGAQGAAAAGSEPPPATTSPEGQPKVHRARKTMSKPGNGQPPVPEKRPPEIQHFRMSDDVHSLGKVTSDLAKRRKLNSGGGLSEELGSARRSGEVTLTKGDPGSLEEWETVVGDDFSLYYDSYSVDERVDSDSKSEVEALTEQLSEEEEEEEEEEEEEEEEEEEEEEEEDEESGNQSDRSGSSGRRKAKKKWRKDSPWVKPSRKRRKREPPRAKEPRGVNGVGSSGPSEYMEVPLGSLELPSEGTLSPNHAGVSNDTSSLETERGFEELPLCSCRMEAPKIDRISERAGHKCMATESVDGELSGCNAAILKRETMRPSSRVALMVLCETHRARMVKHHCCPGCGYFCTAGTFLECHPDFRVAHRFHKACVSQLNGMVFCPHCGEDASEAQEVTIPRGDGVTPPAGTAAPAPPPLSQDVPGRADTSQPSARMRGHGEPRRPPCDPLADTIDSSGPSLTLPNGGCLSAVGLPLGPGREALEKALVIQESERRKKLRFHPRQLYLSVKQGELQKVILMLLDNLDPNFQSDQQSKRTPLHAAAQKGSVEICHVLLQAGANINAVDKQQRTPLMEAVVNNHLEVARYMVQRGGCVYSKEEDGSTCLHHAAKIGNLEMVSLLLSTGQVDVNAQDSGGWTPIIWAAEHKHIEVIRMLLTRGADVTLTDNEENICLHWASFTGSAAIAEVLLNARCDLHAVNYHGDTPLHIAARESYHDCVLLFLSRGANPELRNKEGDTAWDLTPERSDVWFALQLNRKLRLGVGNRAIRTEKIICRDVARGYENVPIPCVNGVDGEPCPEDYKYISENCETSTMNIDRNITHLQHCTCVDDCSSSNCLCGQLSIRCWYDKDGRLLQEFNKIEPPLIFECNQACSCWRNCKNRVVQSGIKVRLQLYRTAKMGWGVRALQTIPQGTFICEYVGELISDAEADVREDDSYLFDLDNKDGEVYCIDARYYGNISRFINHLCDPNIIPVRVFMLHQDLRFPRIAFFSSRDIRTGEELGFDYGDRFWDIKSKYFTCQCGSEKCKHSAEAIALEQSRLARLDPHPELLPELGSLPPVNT

[2] = tested on: other lysine and arginine methyltransferases; settings: up to a 10 μM concentration; cited from earlier work
[3] = in vitro; settings: PAMPA, pH 7.4
[4] = Parallel artificial membrane permeability assay; type: in vitro ADME; settings: PAMPA, pH 7.4
[5] = tested on: lysine N-methyltransferase SUV39H1(H320R); settings: up to a 10 μM concentration; cited from earlier work
[6] = tested on: protein arginine methyltransferase 1 (PRMT1); settings: up to a 10 μM concentration; cited from earlier work
[7] = target: T2, G9a (Homo sapiens, UniProt Q96KQ7); settings: read-out: Morrison Ki, G9a; cited from earlier work
T2 sequence (Q96KQ7 913-1193 limits assumed): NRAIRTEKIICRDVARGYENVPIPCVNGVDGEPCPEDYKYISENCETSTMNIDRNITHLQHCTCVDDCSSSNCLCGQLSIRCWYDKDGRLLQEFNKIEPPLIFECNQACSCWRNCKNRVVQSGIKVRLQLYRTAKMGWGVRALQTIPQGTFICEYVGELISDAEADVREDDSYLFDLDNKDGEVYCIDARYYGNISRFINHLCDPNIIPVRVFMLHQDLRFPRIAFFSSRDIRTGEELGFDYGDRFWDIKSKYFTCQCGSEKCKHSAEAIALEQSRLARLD

[8] = target: T2, G9a; settings: read-out: G9a IC50 (ECSD assay); ECSD assays; cited from earlier work
[9] = tested on: GLP over G9a; settings: biochemical assays; cited from earlier work
[10] = tested on: H3K9me2 levels in MCF-7 cells; assay: Western blot of H3K9me2 in histone extracts, MCF-7; type: cell-based, human; settings: 0.5 and 5 μM, 48 and 72 h
[11] = tested on: H3K9me2 levels in U-343 cells; assay: Western blot of H3K9me2 in histone extracts, U-343; type: cell-based, human; settings: 0.5 and 5 μM, 48 and 72 h
[12] = target: human DNMT3a (Homo sapiens, UniProt Q9Y6K1); assay: HotSpot DNMT activity assay; type: biochemical; settings: lambda DNA substrate
human DNMT3a, sequence (Q9Y6K1 2-912 limits assumed): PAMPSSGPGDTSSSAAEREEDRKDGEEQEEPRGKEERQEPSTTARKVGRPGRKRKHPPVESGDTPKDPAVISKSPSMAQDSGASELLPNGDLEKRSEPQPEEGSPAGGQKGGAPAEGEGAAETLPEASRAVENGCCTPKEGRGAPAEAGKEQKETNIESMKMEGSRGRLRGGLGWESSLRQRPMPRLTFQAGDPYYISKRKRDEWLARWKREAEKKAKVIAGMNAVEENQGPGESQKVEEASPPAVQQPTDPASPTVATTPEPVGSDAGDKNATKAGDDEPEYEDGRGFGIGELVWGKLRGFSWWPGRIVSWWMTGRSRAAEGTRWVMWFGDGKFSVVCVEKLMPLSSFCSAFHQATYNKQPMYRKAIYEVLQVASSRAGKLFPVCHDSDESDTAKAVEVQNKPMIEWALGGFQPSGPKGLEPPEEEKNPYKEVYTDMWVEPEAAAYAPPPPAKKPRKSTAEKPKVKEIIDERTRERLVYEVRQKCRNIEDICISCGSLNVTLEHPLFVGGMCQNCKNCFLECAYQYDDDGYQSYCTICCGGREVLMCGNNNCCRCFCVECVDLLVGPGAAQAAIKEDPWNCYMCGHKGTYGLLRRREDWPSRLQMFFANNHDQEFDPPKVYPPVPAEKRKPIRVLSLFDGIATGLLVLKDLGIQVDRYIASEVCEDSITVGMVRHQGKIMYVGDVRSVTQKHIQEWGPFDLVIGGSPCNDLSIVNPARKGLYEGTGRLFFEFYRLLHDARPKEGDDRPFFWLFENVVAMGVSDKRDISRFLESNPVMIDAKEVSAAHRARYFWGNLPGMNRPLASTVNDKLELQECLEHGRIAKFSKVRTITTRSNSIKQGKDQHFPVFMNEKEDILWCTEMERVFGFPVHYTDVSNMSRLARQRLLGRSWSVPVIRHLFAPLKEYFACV

[13] = Chemical stability in PBS, HPLC analysis; type: physicochemical; settings: exposure to PBS over 72 h
[14] = tested on: H3K9me2 levels in MDA-MB-231 cells; assay: Western blot of H3K9me2 in histone extracts, MDA-MB-231; type: cell-based, human; settings: 0.5 and 5 μM, 48 and 72 h
[15] = target: human recombinant PRMT3 (Homo sapiens, UniProt O60678); assay: PRMT3 inhibition, AlphaLISA assay; type: biochemical; settings: tested at 10 and 25 μM
human recombinant PRMT3, sequence (O60678 whole entry): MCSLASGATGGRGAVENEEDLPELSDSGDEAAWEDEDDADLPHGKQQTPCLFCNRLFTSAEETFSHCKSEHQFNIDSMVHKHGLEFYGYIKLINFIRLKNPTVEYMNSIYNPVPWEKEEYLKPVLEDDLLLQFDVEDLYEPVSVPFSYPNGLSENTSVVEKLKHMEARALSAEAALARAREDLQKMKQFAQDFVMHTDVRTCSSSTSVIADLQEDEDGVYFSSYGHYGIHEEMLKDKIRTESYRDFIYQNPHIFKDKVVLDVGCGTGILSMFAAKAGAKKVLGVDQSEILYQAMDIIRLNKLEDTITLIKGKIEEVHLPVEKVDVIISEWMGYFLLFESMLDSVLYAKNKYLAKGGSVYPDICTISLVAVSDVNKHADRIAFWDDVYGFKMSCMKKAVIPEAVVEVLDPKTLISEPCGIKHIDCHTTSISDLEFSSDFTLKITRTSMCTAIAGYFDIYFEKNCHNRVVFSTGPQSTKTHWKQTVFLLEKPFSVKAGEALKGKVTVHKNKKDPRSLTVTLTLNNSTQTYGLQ

[16] = target: T2, G9a; assay: Surface plasmon resonance; type: binding
[17] = tested on: MCF-7 cells; assay: MTT cell viability assay, MCF-7; type: cell-based, human; settings: 0.05–50 μM; 24, 48, 72 h
[18] = target: human recombinant p300 (Homo sapiens, UniProt Q09472); assay: KAT3B/p300 inhibition, AlphaLISA assay; type: biochemical; settings: tested at 10 and 25 μM
human recombinant p300, sequence (Q09472 whole entry): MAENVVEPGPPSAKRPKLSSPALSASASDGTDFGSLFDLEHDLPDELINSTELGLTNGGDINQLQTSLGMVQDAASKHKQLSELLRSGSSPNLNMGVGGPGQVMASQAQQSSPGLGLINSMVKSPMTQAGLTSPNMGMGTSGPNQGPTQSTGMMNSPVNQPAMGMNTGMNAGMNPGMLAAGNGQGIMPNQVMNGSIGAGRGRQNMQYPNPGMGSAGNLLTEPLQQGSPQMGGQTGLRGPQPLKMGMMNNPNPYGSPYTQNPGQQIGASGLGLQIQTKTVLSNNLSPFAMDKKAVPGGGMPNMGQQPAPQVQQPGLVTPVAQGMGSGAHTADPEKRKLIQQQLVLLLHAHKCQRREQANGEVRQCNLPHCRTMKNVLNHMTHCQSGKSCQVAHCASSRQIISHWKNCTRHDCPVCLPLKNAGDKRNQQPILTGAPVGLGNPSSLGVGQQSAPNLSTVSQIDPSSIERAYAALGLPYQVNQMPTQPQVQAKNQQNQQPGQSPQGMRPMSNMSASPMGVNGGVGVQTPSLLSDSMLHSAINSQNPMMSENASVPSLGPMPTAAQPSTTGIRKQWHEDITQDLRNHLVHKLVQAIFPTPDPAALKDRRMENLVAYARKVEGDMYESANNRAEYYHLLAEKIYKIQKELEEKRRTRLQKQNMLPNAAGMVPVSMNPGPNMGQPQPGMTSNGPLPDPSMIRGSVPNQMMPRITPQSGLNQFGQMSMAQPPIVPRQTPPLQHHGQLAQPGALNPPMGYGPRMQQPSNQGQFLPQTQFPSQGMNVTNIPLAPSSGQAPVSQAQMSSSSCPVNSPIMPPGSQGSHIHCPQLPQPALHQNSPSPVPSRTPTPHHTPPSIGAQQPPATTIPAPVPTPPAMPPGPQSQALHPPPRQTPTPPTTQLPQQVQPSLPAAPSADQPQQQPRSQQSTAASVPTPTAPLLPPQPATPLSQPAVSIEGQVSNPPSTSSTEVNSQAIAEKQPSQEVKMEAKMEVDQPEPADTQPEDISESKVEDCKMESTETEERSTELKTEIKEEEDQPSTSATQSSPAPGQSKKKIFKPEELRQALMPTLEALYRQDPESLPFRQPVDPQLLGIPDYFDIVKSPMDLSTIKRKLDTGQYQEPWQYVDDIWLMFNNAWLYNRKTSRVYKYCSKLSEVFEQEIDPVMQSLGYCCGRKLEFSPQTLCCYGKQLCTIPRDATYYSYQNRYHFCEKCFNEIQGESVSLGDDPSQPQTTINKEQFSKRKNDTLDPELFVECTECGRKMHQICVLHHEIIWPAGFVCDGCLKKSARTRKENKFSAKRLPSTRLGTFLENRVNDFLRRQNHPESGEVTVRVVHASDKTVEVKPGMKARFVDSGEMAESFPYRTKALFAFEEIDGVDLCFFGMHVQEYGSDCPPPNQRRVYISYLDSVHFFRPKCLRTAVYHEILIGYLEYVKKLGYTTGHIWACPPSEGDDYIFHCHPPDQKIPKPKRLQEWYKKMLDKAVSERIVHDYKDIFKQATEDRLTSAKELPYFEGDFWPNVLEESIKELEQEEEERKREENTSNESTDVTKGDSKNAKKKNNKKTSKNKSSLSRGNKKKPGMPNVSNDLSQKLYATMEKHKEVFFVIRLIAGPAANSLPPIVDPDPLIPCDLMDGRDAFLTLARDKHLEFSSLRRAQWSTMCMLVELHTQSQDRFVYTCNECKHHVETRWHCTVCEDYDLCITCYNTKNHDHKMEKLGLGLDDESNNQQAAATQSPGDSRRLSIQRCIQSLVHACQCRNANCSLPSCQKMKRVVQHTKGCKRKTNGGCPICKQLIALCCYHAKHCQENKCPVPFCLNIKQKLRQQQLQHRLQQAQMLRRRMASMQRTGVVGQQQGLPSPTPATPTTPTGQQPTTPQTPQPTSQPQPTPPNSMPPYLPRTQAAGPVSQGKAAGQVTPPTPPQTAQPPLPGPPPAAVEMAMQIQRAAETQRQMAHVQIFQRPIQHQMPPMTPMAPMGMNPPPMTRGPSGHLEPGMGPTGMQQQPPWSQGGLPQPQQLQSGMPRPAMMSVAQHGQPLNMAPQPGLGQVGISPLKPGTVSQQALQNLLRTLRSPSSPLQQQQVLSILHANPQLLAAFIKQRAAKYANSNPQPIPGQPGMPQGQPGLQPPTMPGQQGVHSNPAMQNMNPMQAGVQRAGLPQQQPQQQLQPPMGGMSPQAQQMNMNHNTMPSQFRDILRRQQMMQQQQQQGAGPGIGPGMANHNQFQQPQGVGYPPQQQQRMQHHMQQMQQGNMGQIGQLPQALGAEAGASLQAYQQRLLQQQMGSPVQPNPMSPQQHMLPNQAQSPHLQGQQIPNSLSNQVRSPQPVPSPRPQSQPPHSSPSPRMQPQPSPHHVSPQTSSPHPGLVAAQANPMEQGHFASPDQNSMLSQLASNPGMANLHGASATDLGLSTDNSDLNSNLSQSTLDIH

[19] = target: human recombinant PRMT1 (Homo sapiens, UniProt Q99873); assay: PRMT1 inhibition, AlphaLISA assay; type: biochemical; settings: tested at 10 and 25 μM
human recombinant PRMT1, sequence (Q99873 whole entry): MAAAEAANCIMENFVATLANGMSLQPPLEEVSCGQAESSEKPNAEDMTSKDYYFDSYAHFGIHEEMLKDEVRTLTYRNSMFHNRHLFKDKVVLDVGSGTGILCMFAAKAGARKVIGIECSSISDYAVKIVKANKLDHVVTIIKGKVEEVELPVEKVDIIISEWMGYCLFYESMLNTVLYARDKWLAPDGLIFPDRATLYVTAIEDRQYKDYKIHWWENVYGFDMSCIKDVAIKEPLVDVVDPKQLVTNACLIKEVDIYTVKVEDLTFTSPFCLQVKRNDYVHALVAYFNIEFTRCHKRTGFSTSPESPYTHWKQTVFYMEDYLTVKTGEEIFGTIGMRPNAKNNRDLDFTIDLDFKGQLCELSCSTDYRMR

[20] = target: T3, human recombinant KDM4A (Homo sapiens, UniProt O75164); assay: KDM4A/JMJD2A inhibition, AlphaLISA assay; type: biochemical; settings: tested at 10 and 25 μM
T3 sequence (O75164 1-1064): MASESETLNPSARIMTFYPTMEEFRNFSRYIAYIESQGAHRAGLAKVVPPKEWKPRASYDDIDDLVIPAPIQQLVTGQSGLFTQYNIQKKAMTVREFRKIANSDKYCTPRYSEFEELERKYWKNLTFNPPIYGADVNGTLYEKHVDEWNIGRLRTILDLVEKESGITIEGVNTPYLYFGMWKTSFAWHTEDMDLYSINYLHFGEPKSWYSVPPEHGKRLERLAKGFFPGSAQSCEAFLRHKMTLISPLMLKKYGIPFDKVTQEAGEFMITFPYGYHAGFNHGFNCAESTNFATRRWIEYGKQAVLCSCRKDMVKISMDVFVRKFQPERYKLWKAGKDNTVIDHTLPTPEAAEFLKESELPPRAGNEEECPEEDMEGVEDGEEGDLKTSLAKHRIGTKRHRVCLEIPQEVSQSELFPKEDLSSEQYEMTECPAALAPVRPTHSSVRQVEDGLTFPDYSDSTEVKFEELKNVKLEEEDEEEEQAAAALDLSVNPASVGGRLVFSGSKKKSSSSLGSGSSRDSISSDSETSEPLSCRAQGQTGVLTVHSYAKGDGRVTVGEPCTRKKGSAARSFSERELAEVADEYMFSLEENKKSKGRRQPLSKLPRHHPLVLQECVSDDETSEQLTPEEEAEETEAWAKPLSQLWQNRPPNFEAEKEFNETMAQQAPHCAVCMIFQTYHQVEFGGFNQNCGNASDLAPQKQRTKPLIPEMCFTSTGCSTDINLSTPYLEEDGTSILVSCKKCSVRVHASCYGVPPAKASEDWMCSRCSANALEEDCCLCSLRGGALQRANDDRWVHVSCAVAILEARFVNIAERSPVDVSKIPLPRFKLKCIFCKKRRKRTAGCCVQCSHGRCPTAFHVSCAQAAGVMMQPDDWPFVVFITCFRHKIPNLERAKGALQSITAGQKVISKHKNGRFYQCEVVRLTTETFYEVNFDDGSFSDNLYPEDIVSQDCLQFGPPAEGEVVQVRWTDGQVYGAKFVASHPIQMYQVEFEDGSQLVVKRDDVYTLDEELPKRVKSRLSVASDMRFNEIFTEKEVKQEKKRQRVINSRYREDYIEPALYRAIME

[21] = tested on: U-343 cells; assay: MTT cell viability assay, U-343; type: cell-based, human; settings: up to 5 μM, even after 72 h, vs vehicle
[22] = tested on: MDA-MB-231 cells; assay: MTT cell viability assay, MDA-MB-231; type: cell-based, human; settings: up to 5 μM, even after 72 h, vs vehicle
[23] = target: T1, human recombinant G9a; assay: Mechanism of action kinetics, AlphaLISA G9a assay, Lineweaver-Burk plots; type: biochemical; settings: fixed H3 peptide 100 nM, varying SAM
[24] = target: full-length human recombinant DNMT3b (Homo sapiens, UniProt Q9UBC3); assay: HotSpot DNMT activity assay; type: biochemical; settings: lambda DNA substrate

fold reduction of G9a inhibitory activity compared to 12a [1]: 100 fold
Compound: COc1cc2c(cc1OCCCN1CCCC1)NC(c1ccccc1)CN=C2NC1CCN(C(C)C)CC1 (centres unmarked) [13b, N-(1-Isopropylpiperidin-4-yl)-7-methoxy-2-phenyl-8-(3-(pyrrolidin-1-yl)propoxy)-2,3-dihydro-1H-benzo[e][1,4]-diazepin-5-amine]

Hill slope of the concentration–response inhibition curve of G9a [1]: −1.3
Papp at 24 h, 0.2 mM [3]: 0.019 ×10⁻⁶ cm/s
Papp at 24 h, 0.2 mM [4]: 0.049 ×10⁻⁶ cm/s
Compound: COc1cc2c(NC3CCN(C(C)C)CC3)nc(C3CCCCC3)nc2cc1OCCCN1CCCC1 [compound 7]
activity against other lysine and arginine methyltransferases [2]: inactive

Compound: COc1cc2nc(N3CCCN(C)CC3)nc(NC3CCN(Cc4ccccc4)CC3)c2cc1OC [compound 3]
activity against SUV39H1(H320R) [5]: basically inactive
activity against PRMT1 [6]: basically inactive

Compound: COc1cc2c(NC3CCN(C)CC3)nc(N3CCCN(C)CC3)nc2cc1OCCOCCN(C)C [compound 5]
Ki [7]: 0.063 nM
IC50 [8]: 9 nM

fold reduction of G9a inhibitory activity compared to 12a [1]: approximately 50 fold
Compound: COc1cc2c(cc1OCCCN1CCCC1)N=C(c1ccccc1)CN=C2NC1CCN(C(C)C)CC1 [12b, N-(1-Isopropylpiperidin-4-yl)-7-methoxy-2-phenyl-8-(3-(pyrrolidin-1-yl)propoxy)-3H-benzo[e][1,4]diazepin-5-amine]

Compound: CCCCCCNc1nc(NC2CCN(C)CC2)c2cc(OC)c(OC)cc2n1 [compound 9]
selectivity for GLP over G9a [9]: > 140 fold

fold reduction of G9a inhibitory activity compared to 12a [1]: approximately 50 fold
Compound: COc1cc2c(cc1OCCCN1CCCC1)NC(C1CCCCC1)CN=C2NC1CCN(C(C)C)CC1 (centres unmarked) [13a, 2-Cydohexyl-N-(1-isopropylpiperidin-4-yl)-7-methoxy-8-(3-(pyrrolidin-1-yl)propoxy)-2,3-dihydro-1H-benzo[e][1,4]-diazepin-5-amine]

fold reduction of G9a inhibitory activity compared to 12a [1]: 130 fold
Compound: COc1cc2c(cc1OCCCN1CCCC1)N=C(C1CCCCC1)CC(NC1CCN(C(C)C)CC1)=N2 [compound 14, 4-Cyclohexyl-N-(1-isopropylpiperidin-4-yl)-8-methoxy-7-(3-(pyrrolidin-1-yl)propoxy)-3H-benzo[b][1,4]diazepin-2-amine]

Hill slope of the concentration–response inhibition curve of G9a [1]: −2.7
DNMT3a inhibition (in words) [12]: inactive
chemical stability (HPLC) [13]: did not decompose
PRMT3 inhibition (in words) [15]: only poorly (or not at all) inhibited
Kd [16]: 63800 ± 950 nM
p300 inhibition (in words) [18]: only poorly (or not at all) inhibited
PRMT1 inhibition (in words) [19]: only poorly (or not at all) inhibited
JMJD2A inhibition (in words) [20]: only poorly (or not at all) inhibited
α Ki, noncompetitive against SAM [23]: 1.1 ± 0.2 nM
DNMT3b inhibition (in words) [24]: inactive
Compound: COc1cc2c(cc1OCCCN1CCCC1)N=C(C1CCCCC1)CN=C2NC1CCN(C(C)C)CC1 [12a, 2-Cyclohexyl-N-(1-isopropylpiperidin-4-yl)-7-methoxy-8-(3-(pyrrolidin-1-yl)propoxy)-3H-benzo[e][1,4]diazepin-5-amine]
dimethylation of lysine H3K9 (H3K9me2), MCF-7 [10]: marked and both concentration- and time-dependent reduction
dimethylation of lysine H3K9 (H3K9me2), U-343 [11]: marked and both concentration- and time-dependent reduction
dimethylation of lysine H3K9 (H3K9me2), MDA-MB-231 [14]: marked and both concentration- and time-dependent reduction
cell toxicity (MTT), MCF-7 [17]: slight progressive increase of toxicity after 48 and 72 h
cell toxicity (MTT), U-343 [21]: did not significantly reduce the number of metabolically active MDA-MB-231 or U-343 cells
cell toxicity (MTT), MDA-MB-231 [22]: did not significantly reduce the number of metabolically active MDA-MB-231 or U-343 cells
